Melting point data for 87 molecules are collected here from a melting point compilation (Tetko et al.; mined from patent text by program, amines drawn as free bases though some values may be those of a salt).

A word on the melting point: it is the temperature, or range, at which the solid turns liquid.

The structures appear in SMILES notation. Starred links: 1 amine or outer side, 2 acyl side, 3 side chain; linkers in the order of their positions; H or OH if unused. Non-standard residues stand in square brackets, D forms with d. Residues, ends and D or L forms follow the SMILES beside them. *: point of attachment. γGlu = O=C(O)[CH](CCC(=O)[*:2])N[*:1]; Lauroyl = CCCCCCCCCCCC(=O)*

Turning to `Cc1nc(NC(=O)c2cnn3c(C(F)F)cc(-c4ccc(C(F)(F)F)cc4)nc23)sc1S(=O)(=O)NCCO`, the melting point is 134 °C. With `COc1nc(C)nc(NC(=O)NS(=O)(=O)c2cc([N+](=O)[O-])cs2)n1` the figure was 188 °C. With `O=C(O)/C=C/c1cn(-c2cc(C(F)(F)F)cc(C(F)(F)F)c2)nc1-c1cccc(Cl)c1` the figure was 217 to 221 °C; with `CSc1ccc(F)c(C#N)c1`, 61.7 to 62.7 °C; with `CC(C)C(O)c1cc2ccncc2[nH]1` (configuration not stated), 140 to 144 °C.

The molecule `O=c1[nH]c2cccnc2n1-c1ccccc1` displayed a melting point of 233 to 235 °C. As to `COc1ccc2cc(C(C)NC(=O)NO)ccc2c1` (configuration not stated), the melting point is 174 to 176 °C.

For the molecule `O=C1CCCc2c(F)cc(F)cc21`, the melting point lay in the range of 89 to 91 °C.

`Cc1c(N)ccc([N+](=O)[O-])c1Cl`: the melting point was 134 to 138 °C.

`O=S(=O)(c1ccccc1)c1c[nH]c2c(C3CCNCC3)cccc12`: the melting point was 186 to 190 °C.

`Nc1nccc(-c2ccc(OCC(O)CN3CCN(c4cccc(Cl)c4)CC3)cc2)n1` (configuration not stated): the melting point is 197 to 198 °C. For the molecule `O=C1NCCN1c1ccc(S(=O)(=O)Oc2ccc3[nH]ccc3c2)cc1`, the melting point fell in the range of 226 to 227 °C. Take `O=C(O)c1ccc(OCCCO/N=C/c2cn(Cc3ccccc3)c3ccccc23)cc1O`: the melting point was in the range of 182 to 183 °C. With `CCOC(=O)/C=C/c1ccc(OCCOC)cc1Oc1ccc([N+](=O)[O-])cc1`, the melting point was in the range of 61 to 64 °C. On to `CC(=O)N1CCc2ccc(Cl)c(S)c2C1`, for which the melting point was 92 to 112 °C. In turn, `COc1c(OC)c(-c2ccccc2)n(-c2ccc(C)cc2)c1-c1ccccc1` showed a melting point of 192 to 193 °C. For `CC(C)C[C@H](NS(=O)(=O)c1cccc2ccccc12)C(=O)N[C@H]1CCCOC1O` (some centres not stated) the value was 159 to 161 °C. In the case of `CCCCCCCCCCCC(=O)NC(C)C(=O)NC(CCC(=O)NC(CCCCN)C(=O)O)C(=O)O` (configuration not stated) (Lauroyl-Ala-[γGlu]-Lys-OH; configuration not given here), the melting point lay in the range of 180 to 186 °C.

For `O=S1(=O)c2ccccc2N(c2ccccc2O)c2ccccc21`, the melting point is 282 to 287 °C. For `O=C1C(Cl)=C(C2CCC(c3ccc(Cl)cc3)CC2)C(=O)c2ccccc21` (configuration not stated) the value was 172 to 175 °C; for `CN(C)C(=O)C(Br)Cn1ccc(-c2ccccc2)n1` (configuration not stated), 93 to 94 °C; for `COC(=O)c1nc(NC(=O)Nc2ccccc2)ccc1Oc1nc(OC)cc(OC)n1`, 236 to 237 °C.

`CCOC(=Cc1ccc(-c2cccc(N(C)C(=O)NCCc3ccccc3)c2)cc1)C(=O)O` returned a melting point of 70 °C.

Molecule `CCCCC(C)C(C=Cc1ccc(OCc2ccccc2)c(OCc2ccccc2)c1)OC` (configuration not stated) yielded a melting point of 36 to 38 °C.

`O=C(O)CCCCCCCCCCNC(=O)C(CS)Cc1ccccc1` (configuration not stated) displayed a melting point of 104 to 105 °C. The molecule `COc1cn(-c2ccc(N3CCOCC3=O)cc2F)nc(-c2ccnn2-c2ccccc2)c1=O` displayed a melting point of 193 to 195 °C. With `O=[N+]([O-])c1cn(C2OC(CO)C(O)C2O)nn1` (configuration not stated) the figure was 172 to 174 °C. For `CS(=O)c1ccc(-n2cnc3ccc(-c4nnc(N)o4)cc32)cc1` (configuration not stated) the value was 290 to 291 °C; for `CN1CCN(c2cccc3ccc(C(O)c4ccccc4)cc23)CC1` (configuration not stated), 162 to 163 °C; for `CCOC(=O)C=Cc1ccccc1NC(=O)c1ccc(OCCCCc2ccccc2)cc1`, 129 to 131 °C. `CS(=O)(=O)c1ccc(C2=C(c3ccc(C#N)cc3)CCC2)cc1` came in with a melting point of 163 to 164 °C. For `Cc1nc(Sc2cc(C(=O)O)nc3ccccc23)sc1CC(=O)O` the value was 219 to 220 °C. Consider `COC(=O)c1[nH]c(C)c(C)c1OCCCCCl`, for which the melting point fell in the range of 74 to 76 °C.

In turn, `CCOC(=O)c1c(C(C)C)csc1N` came in with a melting point of 61 to 61.5 °C. For `NC(=O)c1ccc(N2CCN(Cc3cn4cc(Cl)ccc4n3)CC2)c(F)c1` the value was 253 to 255 °C; for `Cc1nc(O)c(C(=O)O)cc1Cl`, 291 to 294 °C; for `c1ccc(CN2CCC3(CC2)OCCCO3)cc1`, below 50 °C. With `COC(=O)C=Cc1ccc(C(=O)NC[C@H](NC(=O)OCc2ccccc2)C(=O)OC(C)(C)C)s1`, the melting point turned out to be 98 °C.

`COc1cc(Nc2c(C#N)cnc3cc(-c4cccc(CN5CCOCC5)c4)ccc23)c(Cl)cc1Cl` returned a melting point of 88 to 91 °C. With `CCCN(C)S(=O)(=O)c1nnc(NC(=O)N(C)C)s1` the figure was 152 to 153 °C. `COc1ccc(C(=O)Nc2ccc(C(=O)O)cc2)cc1C(C)(C)C` had a melting point of 250 °C.

For `COc1cc2c(cc1-c1cccnc1)-c1c(C3NCCO3)c3c(n1CC2)C(=O)N(C(C)(C)C)CCC3` (configuration not stated), the melting point fell in the range of 218 to 220 °C. As for `COc1ccc(C(=O)Nc2cc([N+](=O)[O-])ccc2Br)cc1OC`, the melting point was 183 to 184 °C. For `CCCNC1=NC(c2cccc(-c3cncnc3)c2)(c2ccc(OCCC)c(C)c2)C(=O)N1C` (configuration not stated) the value was 64 to 66 °C; for `Nc1ncc2c(n1)CCC(NC(=O)[C@@H]1CCCN1C(=O)[C@@H](CC1CCCCC1)NS(=O)(=O)Cc1ccccc1)C2` (some centres not stated), 114 to 117 °C; for `CC(=O)OCC1CCn2c(c(C3=C(c4c[nH]c5ccccc45)C(=O)NC3=O)c3ccccc32)C1` (configuration not stated), 264 to 265 °C. With `Cc1c(-c2ccc(C[C@H](NC(=O)c3c(Cl)cccc3Cl)C(=O)O)cc2)c(=O)n(C)c(=O)n1C` the figure was 225 to 227 °C; with `Cc1cccc(NC(=O)N2CCN(CC(=O)N3CC=C(c4cccc(C(F)(F)F)c4)n4ncc(C#N)c43)CC2)c1`, 138 to 140 °C; with `O=C(O)c1cccc2ccc(-c3ccc([N+](=O)[O-])cc3)nc12`, 272 to 274 °C.

Regarding `CC(=O)NCC1CN(c2ccc(N3CCS(=O)CC3)c(F)c2)C(=O)O1` (configuration not stated), the melting point lay within 159 to 161 °C. The molecule `COC(=O)C1=C(C)NC(C)=C(C(=O)OC)N1c1cccc(N)c1` came in with a melting point of 212 to 213 °C. For `COC(=O)N(N=C(C)C)C(=O)c1ccc(Br)cc1` the value was 103 to 104 °C. In the case of `CCOC(=O)c1c(C(C)C)c2ccccn2c1-c1ccc(F)cc1`, the melting point is 51 to 52 °C. For the molecule `Cc1c2ccccc2cc2[nH]c(S)nc12`, the melting point is above 300 °C. With `Cc1ccccc1C(=C1CN(C(c2ccccc2)c2ccccc2)C1)S(C)(=O)=O` the figure was 218 °C; with `CCN(CC)CC1CCCCN1CC(=O)N1c2cc(Cl)ccc2C(=O)Nc2cccnc21` (configuration not stated), 168 to 169 °C; with `COc1cc2cc3c(Cl)c(C#N)cnc3nc2cc1OC`, above 300 °C. For `Cc1cc(O)c(S(=O)Cc2ccc(F)cc2)c(=O)o1` (configuration not stated) the value was 127 to 128 °C; for `COc1ccc2c(c1)C(=NN)Cc1c(C#N)cccc1S2`, 186 to 187 °C; for `CCOC(=O)c1nc2scc(CN(C)Cc3ccccc3)c2c(=O)[nH]1`, 129 °C. `CCOC(=O)CCNC(=O)NC1CCN(c2ccc(C(=N)NOC(=O)OCC(Cl)(Cl)Cl)cc2)C1=O` (configuration not stated) displayed a melting point of 196 to 198 °C. With `CC(=O)SCCC(=O)OC(=O)CO` the figure was 150 to 157 °C. Turning to `CCCCC(Cc1ccc(OCCNC(=O)c2ccc(O)nc2)cc1)C(=O)O` (configuration not stated), the melting point lay within 69 to 71 °C.

Molecule `COCOc1c(Br)cccc1-c1ccc2c(c1)C(C)(C)CCC2(C)C` returned a melting point of 74 °C.

Molecule `CCn1cnc2c(Nc3cccc(C(F)(F)F)c3)nc(Cl)nc21` had a melting point of 129 to 130 °C. With `Cc1csc(N2CCN(Cc3ccc(C(=O)O)cc3)C2=O)n1` the figure was 222 to 224 °C. With `CCCCOc1ccc2c(=O)n(Cc3ccccc3)[nH]c2c1` the figure was 148 to 149 °C; with `COc1cc2ncnc(N3CCN(C(=S)Nc4ccc(CNC(=O)OC(C)(C)C)cc4)CC3)c2cc1OC`, 123 to 126 °C; with `CCCCNc1nc2c(C(=O)OCC)cnn2c2c1cnc1c2cnn1CC`, 275 to 277 °C. With `COC(=O)[C@H](Cc1ccc(OCc2ccccc2)cc1)NC(=O)C(CSC(C)=O)Cc1ccccc1` (some centres not stated) the figure was 92 to 93 °C. In the case of `COc1ccc(C2(C)Cc3cc(OCc4ccccc4)c(Cl)c(Cl)c3C2=O)cc1` (configuration not stated), the melting point is 115 to 119 °C. For `CC(C)(O)Cn1c(CO)nc2c(N)nc3cc(-c4cccc(C(=O)N5CCCC5)c4)cnc3c21` the value was 157 to 160 °C; for `CCSc1nc2c(cc1F)c(=O)c(C(=O)O)cn2CC`, 219 to 221 °C. With `CC1(C)Oc2ccccc2C(c2ccc[nH]c2=O)C1O` (configuration not stated) the figure was 244 to 246 °C. With `Cc1ccccc1C(=O)Nc1ccc(C(=O)N2CCCC(NC(=O)Cn3ccnc3)c3ccccc32)cc1` (configuration not stated), the melting point lay within 250 to 252 °C. For `COC(c1ccccc1)c1nc2c(N)nc3ccccc3c2n1CC(C)C` (configuration not stated) the value was 183 to 184 °C; for `CCCCCCCCCCCC(=O)O[C@H](CCCCCCCCCCC)CC(=O)N[C@@H](CO)C(=O)OCc1ccccc1`, 53 to 54 °C; for `O=C1C2=C(CCCC2)C(=O)N1c1c(F)cc(Cl)c2nc(Cl)sc12`, 139 to 141 °C. `Nc1ccc2ccc(O)cc2c1` registered a melting point of 186 to 188 °C. For `O=C(CNC(=O)c1n[nH]cc1NC(=O)c1ccccn1)c1ccccc1` the value was 270 to 271 °C; for `COc1cc2ncnc(NC3=CC(=O)C(N(C)c4ccccc4)=CC3=O)c2cc1OC`, 204 to 206 °C. As to `O=C(O)[C@H]1CCC(=O)[C@@H](n2nc(-c3c(-c4ccccc4)nn4ccccc34)ccc2=O)C1` (relative stereo), the melting point is 155 to 165 °C. The molecule `CCN1c2ncc(CCc3ccccc3)cc2C(=O)Nc2c(C)ccnc21` yielded a melting point of 174 to 175 °C. The molecule `COc1cccc(-c2nc3nccnc3[nH]2)c1` gave a melting point of 289 °C.

In turn, `CSc1nc(C)ccc1NC(=O)CCCCCBr` yielded a melting point of 98 to 99 °C. The molecule `OC1CSC(Oc2ccccc2-n2ccc3ccccc32)C(O)C1O` (configuration not stated) displayed a melting point of 70 to 73 °C. Consider `CCc1ccc(-c2ccc(I)cc2)cc1`, for which the melting point was 145 to 149 °C.
